Measurements from patent US10682397B2, “Methods of treating fragile X syndrome and related disorders” (Massachusetts Institute of Technology, priority 2015, dated 2020).
“Also recorded” adds a separate entry of the source.

Columns and labels:
[1] = tested on: hippocampal slices; assay: Metabolic labeling of new protein synthesis (35S-Met/Cys incorporation) in hippocampal slices; assay type: cell-based, mice; settings: CDPPB 10 μM, 30 min
Experimental: Metabolic labeling of new protein synthesis was performed as previously described (Osterweil et al., J. Neurosci. 46, 15616-27 (2010)). Male P28-P32 littermate mice were anesthetized with isoflurane and the hippocampus was rapidly dissected into ice-cold aCSF (in mM: 124 NaCl, 3 KCl, 1.25 NaH2PO4, 26 NaHCO3, 10 dextrose, 1 MgCl2, 2 CaCl2, saturated with 95% O2 and 5% CO2). Hippocampal slices (500 μm) were prepared using a Stoelting Tissue Slicer and transferred into 32.5° C. aCSF (saturated with 95% O2 and 5% CO2) within 5 mM. Slices were incubated in aCSF undisturbed for 3.5-4 h to allow for recovery of basal protein synthesis. Actinomycin D (25 μM) and vehicle or CDPPB (10 μM) was then added to the recovery chamber for 30 mM to inhibit transcription and stimulate mGlu receptors, respectively after which slices were transferred to fresh aCSF containing ˜10 mCi/ml [^35S] Met/Cys (Perkin Elmer) for an additional 30 mM Slices were then homogenized, and labeled proteins isolated by TCA precipitation. Samples were read with a scintillation counter and subjected to a protein concentration assay (Bio-Rad). Data was analyzed as counts per minute per microgram of protein, normalized to the [^35S] Met/Cys aCSF used for incubation and the average incorporation of all samples analyzed and then normalized to percent wild-type for each experiment. Statistical significance was determined using unpaired t-tests.
To determine the role of β-arrestin2 in mGlu5-mediated protein synthesis, hippocampal slices from male Arrb2^+/− and wild-type (WT) littermates were stimulated with a selective […] positive modulator of mGlu5, 3-Cyano-N-(1,3-diphenyl-1H-pyrazol-5-yl) benzamide (CDPPB, 10 μM, 30 minutes), and the incorporation of ^35S-methionine/cysteine into new protein was measured. mGlu5 activation caused a parallel increase in protein synthesis (FIG. 1A) and ERK1/2 phosphorylation (FIG. 1B) in WT slices, which were both absent in slices from Arrb2^+/− mice. […]

[2] = tested on: AKT; assay: Immunoblotting of AKT phosphorylation in hippocampal slices; assay type: cell-based, mice; settings: 10 μM CDPPB
Experimental: (§1) Hippocampal slices were prepared and recovered as described in metabolic labeling experiments. Sets of slices were stimulated with CDPPB (10 μM) for 30 minutes and then flash frozen in liquid nitrogen immediately after stimulation, prior to processing. Yoked unstimulated slices were also processed to assess basal signaling levels Immunoblotting was performed according to established methods using primary antibodies to p-ERK1/2 (Thr202/Tyr204) (Cell Signaling Technology), ERK1/2 (Cell Signaling Technology), p-Akt (Ser473) (Cell Signaling Technology), Akt (Cell Signaling Technology), […] (Cell Signaling Technology) and S6 (Cell Signaling Technology). Protein levels were measured by densitometry (Quantity One), and quantified as the densitometric signal of phospho-protein divided by the total protein signal in the same lane.

[3] = tested on: ERK1/2; assay: Immunoblotting of ERK1/2 phosphorylation in hippocampal slices; assay type: cell-based, mice; settings: CDPPB 10 μM, 30 min
Experimental: as §1

[4] = tested on: ribosomal protein S6; assay: Immunoblotting of ribosomal protein S6 phosphorylation in hippocampal slices; assay type: cell-based, mice; settings: 10 μM CDPPB
Experimental: as §1

[5] = tested on: hippocampal neurons; assay: Fluorescence-based calcium imaging in brain slices (Fluo-4 AM); assay type: cell-based, mice; settings: DHPG 25 μM
Experimental: Hippocampal slices were prepared as described for electrophysiology experiments and recovered in aCSF for 2 hours at 32° C. Slices were then moved to a small recovery chamber and incubated in oxygenated aCSF containing 20 μM fluo-4-acetoxymethyl ester (fluo-4 AM; ThermoFisher) and 0.1% Pluronic F-127 (ThermoFisher) for 1 hour in the dark. After 1 hour, slices were then washed with oxygenated aCSF containing 1 μM tetrodotoxin (Abcam) and 50 μM D-AP5 (Tocris) for 20 minutes in a recording chamber. A low-powered (4×) objective was used to identify the brain region of interest. CA1 pyramidal neurons were visualized using a 40× water immersion objective and a Nikon Eclipse E600FN microscope.
Changes in Ca^2+ fluorescence were monitored in the presence of 1 μM tetrodotoxin and 50 μM D-AP5 using a Hamamatsu ORCA-100 camera, HClmage software (Hamamatsu), and a mercury arc-lamp and power supply (Nikon). After a 10 second baseline, 25 μM (S)-3,5-DHPG was bath applied. […] Data were analyzed using Image J software. Increases in Ca^2+ mobilization in hippocampal neurons were reported as changes in relative fluorescence divided by the baseline fluorescence (ΔF/F).
To assay the integrity of Gq signaling, calcium mobilization in hippocampal slices from WT and Arrb2^+/− animals was measured using the cell-permeable calcium fluorescent dye Fluo4-AM. […]

[6] = tested on: mice; assay: MK801-induced hyperlocomotion in the open field; assay type: in vivo; settings: for MK801-induced hyperlocomotion: MTEP 10 mg/kg i.p. pre-treatment, MK801 0.3 mg/kg
Experimental: To determine the effects of genotype on MK801-induced hyperlocomotion, mice were habituated in the open field (40 cm×40 cm×40 cm box) for 60 min, followed by the administration of vehicle or MK801 and locomotor activity was recorded for another 60 mM. To determine the effects of MTEP by genotype on MK801-induced hyperlocomotion, mice were habituated in the open field for 30 min, followed by the intraperitoneal (i.p.) administration of MTEP (10 mg/kg at a dosing volume of 10 ml/kg). After an additional 30 mM, MK801 (0.3 mg/kg at a dosing volume of 10 ml/kg) was administered i.p. and locomotor activity was recorded for another 60 mM. The time course of drug-induced changes in ambulation was expressed as cm traveled/5 mM over the 120-min session. Sessions were recorded using Plexon's CINEPLEX® Studio and analyzed using Plexon's CINEPLEX® Editor and code written in MATLAB. MK801-induced locomotor activity was scored and analyzed using the average of the final 5 minutes (minute 115-120) per cohort.

[7] = tested on: hippocampal slices; assay: mGlu-LTD (DHPG-induced) field recordings in hippocampal slices; assay type: cell-based, mice
Experimental: Slices were prepared as described previously (Dolen et al., Neuron 6, 955-56 (2007)). Acute hippocampal slices (350 μm) were prepared from P28-35 animals in ice-cold dissection buffer containing (in mM): NaCl 87, Sucrose 75, KCl2.5, NaH2PO4 1.25, NaHCO3 25, CaCl2 0.5, MgSO4 7, Ascorbic acid 1.3, and D-glucose 10 (saturated with 95% O2/5% CO2). Immediately following slicing the CA3 region was removed. Slices were recovered in artificial cerebrospinal fluid (aCSF) containing (in mM): NaCl 124, KCl5, NaH2PO4 1.23, NaHCO3 26, CaCl2 2, MgCl2 1, and D-glucose 10 (saturated with 95% O2/5% CO2) at 32.5° C. for ≥3 hours prior to recording.
Field recordings were performed in a submersion chamber, perfused with aCSF (2-3 ml/min) at 30° C. Field EPSPs (fEPSPs) were recorded in CA1 stratum radiatum with extracellular glass electrodes (1-2 MΩ) filled with aCSF. Baseline responses were evoked by stimulation of the Schaffer collaterals at 0.033 Hz with a 2-contact cluster electrode (FHC) using a 0.2 ms stimulus yielding 40-60% of the maximal response. fEPSP recordings were filtered at 0.1 Hz-1 kHz, digitized at 10 kHz, and analyzed using pClamp9 (Axon Instruments). […]
Paired pulse facilitation was induced by applying two pulses at different interstimulus intervals. Facilitation was measured by the ratio of the fEPSP slope of stimulus 2 to stimulus 1. […]

## N#Cc1cccc(C(=O)Nc2cc(-c3ccccc3)nn2-c2ccccc2)c1 [CDPPB, 3-Cyano-N-(1,3-diphenyl-1H-pyrazol-5-yl) benzamide]
[1]; Arrb1+/− slices
  Protein synthesis compared with vehicle: similarly elevated
[1]; Arrb2+/− slices
  Protein synthesis compared with vehicle: no effect
[1]; WT slices
  Protein synthesis compared with vehicle: similarly elevated
[2]; WT and Arrb1+/− slices
  AKT phosphorylation compared with vehicle: Neither WT nor Arrb1^+/− slices stimulated with CDPPB show elevated AKT phosphorylation
[2]; WT and Arrb2+/− slices
  AKT phosphorylation compared with vehicle: Neither WT nor Arrb2^+/− slices stimulated with CDPPB show elevated AKT phosphorylation
[3]; Arrb1+/− slices
  ERK1/2 phosphorylation compared with vehicle: elevated
[3]; Arrb2+/− slices
  ERK1/2 phosphorylation compared with vehicle: no change
[3]; WT slices
  ERK1/2 phosphorylation compared with vehicle: elevated
[4]; WT and Arrb1+/− slices
  S6 phosphorylation compared with vehicle: Neither WT nor Arrb1^+/− slices stimulated with CDPPB show elevated S6 phosphorylation
[4]; WT and Arrb2+/− slices
  S6 phosphorylation compared with vehicle: Neither WT nor Arrb2^+/− slices stimulated with CDPPB show elevated S6 phosphorylation

## N[C@H](C(=O)O)c1cc(O)cc(O)c1 [DHPG, (S)-3,5-Dihydroxyphenylglycine]
[5]; 1 min, WT and Arrb2+/− slices (not significantly different)
  Ca2+-mediated fluorescence: rapid increase

## C[C@]12N[C@H](Cc3ccccc31)c1ccccc12 [MK801]
[6]; MK801 0.3 mg/kg i.p., 60 minutes post-treatment, WT and Arrb2+/− mice (comparable)
  Locomotor activity compared to vehicle: hyperlocomotion

## Cc1nc(C#Cc2cccnc2)cs1 [MTEP, 3-[(2-Methyl-1,3-thiazol-4-yl)ethynyl]-pyridine]
[6]; Arrb2+/− mice
  MK801-induced hyperlocomotion: continues to exacerbate; also recorded: potentiates
[6]; WT mice
  MK801-induced hyperlocomotion: significantly potentiates

## COc1ccc2c(c1)CC[C@@H]1[C@@H]2CC[C@]2(C)[C@@H](NCCCCCCN3C(=O)C=CC3=O)CC[C@@H]12 [U73122]
[5]; pretreatment with 10 μM U73122, data not shown
  DHPG-induced changes in calcium fluorescence: completely blocked

## C[C@@H]1C[C@@H]([C@H](O)CC2CC(=O)NC(=O)C2)C(=O)[C@@H](C)C1 [cycloheximide]
[7]; Arrb2+/− slices, cycloheximide 60 μM, listed as CHX
  DHPG-LTD (25 μM, 5 min) magnitude: unaffected; also recorded: no effect
[7]; WT slices, cycloheximide 60 μM pretreatment
  DHPG-LTD (25 μM, 5 min) magnitude: significantly diminished; also recorded: significantly attenuated
